Test results as given in patent publication US10231956B2, “3-(1H-pyrrolo[3,2-C]pyridin-2-YL)-1 H-pyrazolo[4,3-B]pyridines and therapeutic uses thereof” (Samumed, LLC, priority 2015, dated 2019).

Tests used:
Format in all cases: cell-based
IL-6 = IL-6 inhibition in LPS-stimulated THP-1 cells (HTRF); details: Homo sapiens, LPS 500 ng/mL, 22 hours, IL6 HTRF
Procedure: Human Monocyte Cell Culture: Human monocyte cell line (THP-1 cells; Catalog # TIB-202, ATCC, Manassas, Va.) were cultured in Roswell Park Memorial Institute (RPMI) 1640 Medium (Catalog #21870-100, Buffalo, N.Y.) with 1% L-glutamine, 1% HEPES, 1% Sodium Pyruvate, 2% Sodium Bicarbonate supplemented with 100 units/mL penicillin, 50 μg/mL streptomycin, 2-mercaptoethanol (0.05 mM) [basal medium] and 10% fetal bovine serum (Catalog #16140089, Life Technologies, Carlsbad, Calif.) at 37° C. and 5% CO2.
Compound Screening: THP-1 cells were cultured in basal media with 1% FBS for 24 hours before the start of the assay. Each compound was dissolved in DMSO as a 10 mM stock and used to prepare compound source plates. Serial dilution (1:3, 10-point dose-response curves starting from 1 μM) and compound transfer was performed using the ECHO 550 (Labcyte, Sunnyvale, Calif.) into 384-well white low volume assay plates (Greiner Bio-One) with appropriate DMSO backfill for a final DMSO concentration of 0.1%. THP-1 cells were plated at 5000 cells/well in the 384-well plates and incubated at 37° C. for 2 h. 500 ng/mL of LPS was added after 2 hours and cells were incubated for another 22 hours at 37° C. Plates were spun in a centrifuge for 1 minute at 10,000 rpm and a mixture of anti-IL6 XL665, and anti-IL6 Cryptate diluted in reconstitution buffer (Cisbio Inc.) was added to each well. Following incubation for 3 hrs at room temperature, Homogeneous Time-Resolved Fluorescence (HTRF) was measured using the Envision (Perkin Elmer) at 665 nm and […]. The ratio of fluorescence at 665 nm to 620 nm was used as a readout for IL6 quantification. All samples were processed in duplicate. Readings were normalized to DMSO treated cells and normalized activities were utilized for EC50 calculations using the dose-response log (inhibitor) vs. response-variable slope (four parameters) nonlinear regression feature available in GraphPad Prism 5.0 (or Dotmatics). For EC50 of >10 μM, the percent inhibition at 10 μM is provided.

[1] = tested on: Wnt activity (Sp5-Luc reporter, SW480 colon carcinoma cells); experiment: Sp5-Luc reporter gene screening assay for Wnt activity in SW480 cells; details: Homo sapiens, luminescence, overnight incubation
Excerpt: The screening assay for Wnt activity is described as follows. Reporter cell lines can be generated by stably transducing cancer cell lines (e.g., colon cancer) or primary cells (e.g., IEC-6 intestinal cells) with a lentiviral construct that includes a Wnt-responsive promoter driving expression of the firefly luciferase gene.
SW480 colon carcinoma cells were transduced with a lentiviral vector expressing luciferase with a human Sp5 promoter consisting of a sequence of eight TCF/LEF binding sites. SW480 cells stably expressing the Sp5-Luc reporter gene and a hygromycin resistance gene were selected by treatment with 150 μg/mL of hygromycin for 7 days. These stably transduced SW480 cells were expanded in cell culture and used for all further screening activities. Each compound was dissolved in DMSO as a 10 mM stock and used to prepare compound source plates. Serial dilution (1:3, 10-point dose-response curves starting from 10 μM) and compound transfer was performed using the ECHO 550 (Labcyte, Sunnyvale, Calif.) into 384-well white solid bottom assay plates (Greiner Bio-One) with appropriate DMSO backfill for a final DMSO concentration of 0.1%. For Sp5-Luc reporter gene assays, the cells were plated at 4,000 cells/well in 384-well plates with medium containing 1% fetal bovine serum and incubated overnight at 37° C. and 5% CO2. Following incubation, 20 μl of BrightGlo luminescence reagent (Promega) was added to each well of the 384-well assay plates. The plates were placed on an orbital shaker for 2 min and then luminescence was quantified using the Envision (Perkin Elmer) plate reader. Readings were normalized to DMSO only treated cells, and normalized activities were utilized for EC50 calculations using the dose-response log (inhibitor) vs. response-variable slope (four parameters) nonlinear regression feature available in GraphPad Prism 5.0 (or Dotmatics). For EC50 of >10 μM, the percent inhibition at 10 μM is provided.

[2] = tested on: primary human fibroblasts derived from IPF patients (LL29 cells); experiment: Inhibition of fibrotic process: αSMA staining in TGF-β1 treated LL29 fibroblasts; details: Fibroblast, 96 h, TGF-β1 20 ng/mL, 4 days, % cells positive for αSMA
Excerpt: Representative compounds were screened using primary human fibroblasts (derived from IPF patients) treated with TGF-β1 to determine their ability to inhibit the fibrotic process.
Human Fibroblast Cell Culture: Primary human fibroblasts derived from IPF patients (LL29 cells) [^1Xiaoqiu Liu, et. al., “Fibrotic Lung Fibroblasts Show Blunted Inhibition by cAMP Due to Deficient cAMP Response Element-Binding Protein Phosphorylation”, Journal of Pharmacology and Experimental Therapeutics (2005), 315(2), 678-687; ^2Watts, K. L., et. al., “RhoA signaling modulates cyclin D1 expression in human lung fibroblasts; implications for idiopathic pulmonary fibrosis”, Respiratory Research (2006), 7(1), 88] were obtained from American Type Culture Collection (ATCC) and expanded in F12 medium supplemented with 15% Fetal Bovine Serum and Penicillin/Streptomycin.
Compound Screening: Each compound was dissolved in DMSO as a 10 mM stock and used to prepare compound source plates. Serial dilution (1:2, 11-point dose-response curves from […]) and compound transfer was performed using the ECHO 550 (Labcyte, Sunnyvale, Calif.) into 384-well clear bottom assay plates (Greiner Bio-One) with appropriate DMSO backfill for a final DMSO concentration of 0.1%. LL29 cells are plated at 1,500 cells/well in 80 μL/well F12 medium supplemented with 1% Fetal Bovine Serum. One hour after addition of the cells, TGF-β1 (Peprotech; 20 ng/mL) was added to the plates to induce fibrosis (ref. 1 and 2 above). Wells treated with TGF-β1 and containing DMSO were used as controls. Cells were incubated at 37° C. and 5% CO2 for 4 days. Following incubation for 4 days, SYTOX green nucleic acid stain (Life Technologies [Thermo Fisher Scientific]) was added to the wells at a final concentration of 1 μM and incubated at room temperature for 30 min. Cells were then fixed using 4% formaldehyde (Electron Microscopy Sciences), washed 3 times with PBS followed by blocking and permeabilization using 3% Bovine Serum Albumin (BSA; Sigma) and 0.3% Triton X-100 (Sigma) in PBS. Cells were then stained with antibody specific to α-smooth muscle actin (αSMA; Abcam) (ref. 1 and 2 above) in 3% Bovine Serum Albumin (BSA; Sigma) and 0.3% Triton X-100 (Sigma) in PBS, and incubated overnight at 4° C. Cells were then washed 3 times with PBS, followed by incubation with Alexa Flor-647 conjugated secondary antibody (Life Technologies [Thermo Fisher Scientific]) and DAPI at room temperature for 1 hour. Cells were then washed 3 times with PBS and plates were sealed for imaging. αSMA staining was imaged by excitation at 630 nm and emission at 665 nm and quantified using the Compartmental Analysis program on the CellInsight CX5 (Thermo Scientific). Dead or apoptotic cells were excluded from analysis based on positive SYTOX green staining. % of total cells positive for αSMA were counted in each well and normalized to the average of 11 wells treated with TGF-β1 on the same plate using Dotmatics' Studies Software. The normalized averages (fold change over untreated) of 3 replicate wells for each compound concentration were used to create dose-responses curves and EC50 values were calculated using non-linear regression curve fit in the Dotmatics' Studies Software. For EC50 of >10 μM, the percent inhibition at 10 μM is provided.

SW480 colon cancer cells = experiment: Cell viability assay (CellTiter-Blue) in SW480 colon cancer cells; details: Homo sapiens, 96 h, four days, CellTiter-Blue
Procedure: Representative compounds were screened using the following assay procedure to assess the effect on cell viability as described below.
Each compound was dissolved in DMSO as a 10 mM stock and used to prepare compound source plates. Serial dilution (1:3, 8-point dose-response curves from 10 μM to 0.0045 μM) and compound transfer was performed using the ECHO 550 (Labcyte, Sunnyvale, Calif.) into 96-well clear bottom, black-walled plates (Corning-Costar).
Approximately 2×10^3 SW480 colon cancer cells were seeded into each well and allowed to incubate in the presence or absence of compound for four days at 37° C./5% CO2. Eight replicates of DMSO-treated cells served as controls and cells treated with compound were performed in duplicate.
After incubation, 20 μL of CellTiter-Blue (Promega) was added to each well allowed to incubate for approximately 3 hours. This reagent was a buffered solution which contains resazurin, metabolically active cells were able to reduce rezarurin (blue) into resorufin (pink) which was highly fluorescent. This measured fluorescence was used as a readout for cell viability.
After incubation, the plates were read at Ex 560 nm Em 590 nm (Cytation 3, BioTek). Dose-response curves were generated and EC50 concentration values were calculated using non-linear regression curve fit in the GraphPad Prism (San Diego, Calif.) or Dotmatics' Studies Software (Bishops Stortford, UK). For EC50 of >10 μM, the percent inhibition at 10 μM is provided.

Row | EC50 (IL-6) [nM] | EC50 [1] [nM] | EC50 (SW480 colon cancer cells) [nM] | SMILES | EC50 [2] [nM]
1 | 118 | 4860 | 2620 | CC(C)(C)C(=O)Nc1cncc(-c2ccc3[nH]nc(-c4cc5c(-c6cccc(F)c6)nccc5[nH]4)c3n2)c1 [Compound 8, N-(5-(3-(4-(3-Fluorophenyl)-1H-pyrrolo[3,2-c]pyridin-2-yl)-1H-pyrazolo [4,3-b]pyridin-5-yl)pyridin-3-yl)pivalamide] | 1080
2 | 7700 | 3470 | 2590 | Fc1ccc(-c2nccc3[nH]c(-c4n[nH]c5ccc(-c6ccccn6)nc45)cc23)cc1 [Compound 56, 3-(4-(4-Fluorophenyl)-1H-pyrrolo[3,2-c]pyridin-2-yl)-5-(pyridin-2-yl)-1H-pyrazolo[4,3-b]pyridine] | 1310
3 | 88 | 716 | 737 | O=C(Nc1cncc(-c2ccc3[nH]nc(-c4cc5c(-c6cccnc6)nccc5[nH]4)c3n2)c1)C1CCCC1 [Compound 106, N-(5-(3-(4-(Pyridin-3-yl)-1H-pyrrolo[3,2-c]pyridin-2-yl)-1H-pyrazolo[4,3-b]pyridin-5-yl)pyridin-3-yl)cyclopentanecarboxamide] | 1320
4 | 9200 | 4490 | 1660 | c1cc(-c2nccc3[nH]c(-c4n[nH]c5ccc(-c6cncc(CNCC7CCCC7)c6)nc45)cc23)ccn1 [Compound 137, 1-Cyclopentyl-N-((5-(3-(4-(pyridin-4-yl)-1H-pyrrolo[3,2-c]pyridin-2-yl)-1H-pyrazolo[4,3-b]pyridin-5-yl)pyridin-3-yl)methyl)methanamine] | 3240
5 | 418 | 3510 | 3570 | CN1CCN(c2nccc3[nH]c(-c4n[nH]c5ccc(-c6cncc(NC(=O)CC(C)(C)C)c6)nc45)cc23)CC1 [Compound 240, 3,3-Dimethyl-N-(5-(3-(4-(4-methylpiperazin-1l-yl)-1H-pyrrolo[3,2-c]pyridin-2-yl)-1H-pyrazolo[4,3-b]pyridin-5-yl)pyridin-3-yl)butanamide] | 1010
6 | 9070 | 3710 | 1190 | c1cc2[nH]c(-c3n[nH]c4ccc(-c5cncc(CNCC6CCCC6)c5)nc34)cc2c(-c2ccoc2)n1 [Compound 333, 1-Cyclopentyl-N-((5-(3-(4-(furan-3-yl)-1H-pyrrolo[3,2-c]pyridin-2-yl)-1H-pyrazolo[4,3-b]pyridin-5-yl)pyridin-3-yl)methyl)methanamine] | 714
7 | 5380 | 1100 | 577 | Cc1ccncc1-c1ccc2[nH]nc(-c3cc4c(-c5cccs5)nccc4[nH]3)c2n1 [Compound 341, 5-(4-Methylpyridin-3-yl)-3-(4-(thiophen-2-yl)-1H-pyrrolo[3,2-c]pyridin-2-yl)-1H-pyrazolo[4,3-b]pyridine] | 621
8 | 2750 | 2680 | 1520 | c1csc(-c2nccc3[nH]c(-c4n[nH]c5ccc(-c6cncnc6)nc45)cc23)c1 [Compound 363, 5-(Pyrimidin-5-yl)-3-(4-(thiophen-2-yl)-1H-pyrrolo[3,2-c]pyridin-2-yl)-1H-pyrazolo[4,3-b]pyridine] | 529
9 | 1520 | 8320 | 4120 | Fc1cccc(-c2nccc3[nH]c(-c4n[nH]c5ccc(C6CCNCC6)nc45)cc23)c1 [Compound 505, 3-(4-(3-Fluorophenyl)-1H-pyrrolo[3,2-c]pyridin-2-yl)-5-(piperidin-4-yl)-1H-pyrazolo[4,3-b]pyridine] | 2710
10 | 9020 | 1010 | 555 | c1cc2[nH]c(-c3n[nH]c4ccc(-c5cncc(OC6CCCCC6)c5)nc34)cc2c(-c2ccoc2)n1 [Compound 687, 5-(5-(Cyclohexyloxy)pyridin-3-yl)-3-(4-(furan-3-yl)-1H-pyrrolo[3,2-c]pyridin-2-yl)-1H-pyrazolo[4,3-b]pyridine] | 452
